pIC50: −log10 of the molar value. Blank lines part the entries; values can stand above or below the compound they belong to. Active and inactive are the calls of the source.
Key:
[1] = molecular target: Benomyl/methotrexate resistance protein (Candida albicans, UniProt P28873); assay: Candida albicans Mdr1 pump inhibition curves – singleplex, Cherry Pick1 hits, dose response (AID 588608); format: functional
HEK293 [2] = assay: cells; format: functional, cell-based; details: Homo sapiens
[3] = loss of viability in HepG2 cells – cell-based, CellTiter-Glo, cherry-picked, cytotoxicity control for Shn3 inhibitor project, dose response (AID 624134); format: functional
[4] = Trypanosoma cruzi growth suppression in host cells – NIH3T3 host cells, beta-gal luminescence, confirmation (AID 2044); format: functional, cell-based;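 further: intracellular parasites grown in NIH/3T3 mouse fibroblasts as host cells; luminescent beta-galactosidase reporter signal from transgenic T. cruzi replicating inside host cells; inhibitors lower the luminescence signal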
[5] = molecular target: Nucleotide-binding oligomerization domain-containing protein 2 (Homo sapiens, UniProt Q9HC29); assay: inhibition of NOD2-driven NF-kB reporter – cell-based, luminescence, uHTS, HEK293 (AID 1566); format: functional
Sequence of Nucleotide-binding oligomerization domain-containing protein 2 (Q9HC29 whole entry, the tested form may be a part): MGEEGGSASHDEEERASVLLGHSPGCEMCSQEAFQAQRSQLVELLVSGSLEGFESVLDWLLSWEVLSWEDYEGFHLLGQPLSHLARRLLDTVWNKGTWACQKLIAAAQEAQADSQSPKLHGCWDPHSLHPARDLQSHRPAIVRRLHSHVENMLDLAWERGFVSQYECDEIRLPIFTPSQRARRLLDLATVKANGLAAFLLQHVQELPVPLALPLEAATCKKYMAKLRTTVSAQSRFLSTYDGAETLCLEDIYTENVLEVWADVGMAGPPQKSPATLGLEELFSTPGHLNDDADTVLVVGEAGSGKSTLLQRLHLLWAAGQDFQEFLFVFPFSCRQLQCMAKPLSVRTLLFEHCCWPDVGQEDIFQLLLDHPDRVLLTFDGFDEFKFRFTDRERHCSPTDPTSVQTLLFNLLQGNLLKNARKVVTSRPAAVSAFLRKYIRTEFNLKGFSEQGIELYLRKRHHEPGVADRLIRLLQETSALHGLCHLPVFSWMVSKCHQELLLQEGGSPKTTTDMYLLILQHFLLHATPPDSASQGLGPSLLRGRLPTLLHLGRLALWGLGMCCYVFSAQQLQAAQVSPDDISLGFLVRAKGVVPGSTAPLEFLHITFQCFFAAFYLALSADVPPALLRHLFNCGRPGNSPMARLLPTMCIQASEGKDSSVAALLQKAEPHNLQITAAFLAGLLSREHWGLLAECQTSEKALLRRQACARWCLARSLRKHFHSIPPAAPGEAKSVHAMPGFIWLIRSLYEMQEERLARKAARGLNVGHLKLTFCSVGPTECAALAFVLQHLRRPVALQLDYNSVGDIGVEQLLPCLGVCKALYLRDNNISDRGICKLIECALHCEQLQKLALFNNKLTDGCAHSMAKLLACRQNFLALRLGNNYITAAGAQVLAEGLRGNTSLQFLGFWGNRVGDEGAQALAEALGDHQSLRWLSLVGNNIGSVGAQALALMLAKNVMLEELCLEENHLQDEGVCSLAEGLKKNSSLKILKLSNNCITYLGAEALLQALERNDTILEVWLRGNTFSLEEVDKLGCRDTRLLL

[6] = molecular target: T1, Kappa-type opioid receptor (Homo sapiens, UniProt P41145); format: functional
T1 sequence (P41145 whole entry): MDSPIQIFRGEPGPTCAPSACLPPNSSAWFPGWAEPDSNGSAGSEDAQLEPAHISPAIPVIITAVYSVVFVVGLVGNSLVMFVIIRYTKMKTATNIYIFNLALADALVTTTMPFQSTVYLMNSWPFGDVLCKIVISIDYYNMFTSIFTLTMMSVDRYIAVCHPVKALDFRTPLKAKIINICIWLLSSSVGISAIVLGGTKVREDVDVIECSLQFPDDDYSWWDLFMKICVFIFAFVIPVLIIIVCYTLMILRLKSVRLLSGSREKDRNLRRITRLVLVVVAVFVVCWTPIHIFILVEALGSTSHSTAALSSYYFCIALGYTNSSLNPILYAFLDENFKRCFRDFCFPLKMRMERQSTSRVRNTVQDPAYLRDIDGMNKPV

INS1 = assay: INS-1E survival protection against cytokine death – cell-based, luminescence, retest, dose response (AID 449756); format: functional; details: Rattus norvegicus;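 further: cell death triggered by IL-1 beta plus TNF-alpha plus IFN-gamma mixture; protective hits raise ATP signal compared with cytokine alone wells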
[7] = molecular target: T2, Heat shock factor protein 1 (Mus musculus, UniProt P38532); assay: enhancement of HSF1-driven luciferase signal – cell-based, NIH3T3, luminescence, dose retest, confirmation (AID 435004); format: functional;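 further: stress induced by proteasome inhibitor MG132 added 30 min after compound; luciferase reporter driven by HSF1 response element in NIH3T3 cells; actives raise luminescence as potentiators of the MG132 stress response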
T2 sequence (P38532 whole entry): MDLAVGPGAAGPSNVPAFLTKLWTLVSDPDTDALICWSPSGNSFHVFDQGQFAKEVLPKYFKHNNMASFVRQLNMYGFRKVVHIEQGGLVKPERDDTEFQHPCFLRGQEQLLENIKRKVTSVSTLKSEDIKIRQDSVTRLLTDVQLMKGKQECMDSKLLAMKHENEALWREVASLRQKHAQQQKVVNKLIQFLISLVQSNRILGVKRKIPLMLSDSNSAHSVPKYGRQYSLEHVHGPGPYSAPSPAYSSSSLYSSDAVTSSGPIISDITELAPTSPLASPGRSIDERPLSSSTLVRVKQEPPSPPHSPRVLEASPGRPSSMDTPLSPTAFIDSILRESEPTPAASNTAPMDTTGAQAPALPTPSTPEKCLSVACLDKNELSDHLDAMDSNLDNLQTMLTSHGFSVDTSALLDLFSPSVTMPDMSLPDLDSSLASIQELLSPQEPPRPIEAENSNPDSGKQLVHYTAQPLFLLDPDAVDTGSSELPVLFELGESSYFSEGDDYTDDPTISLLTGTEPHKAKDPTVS

[8] = non-specific 3'UTR reporter inhibition in Clone20-Shn3RL – cell-based, Renilla luciferase, cherry-picked, counter-screen for Shn3 inhibitor project, dose response (AID 624133); format: functional
[9] = NIH3T3 cell viability loss – ATP luminescence, mouse fibroblasts, counter-screen, dose response (AID 2010); format: functional, cell-based;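 further: cells exposed to compound for about 90 hours before reading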
HEK293 [10] = assay: cells; format: functional, cell-based; details: Homo sapiens; remark: listed apart in the source
HEK293 [11] = assay: NOD2 signaling inhibitors in MDP-stimulated cells, cell-based, uHTS, luminescence (AID 2001); format: functional; details: Homo sapiens
HEK293 [12] = assay: EBV LMP1 TES2 canonical NF-kB signalling blockers – cell-based, HEK293, luciferase, cherry-pick, dose response (AID 588343); format: functional; details: Homo sapiens
[13] = reduction of Shn3 3'UTR-driven luciferase in osteoblasts – cell-based, Clone20 osteoblasts, firefly luciferase, cherry-picked, dose response (AID 624132); format: functional;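 further: firefly luciferase luminescence from reporter carrying the Shn3 3'UTR in osteoblasts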
[14] = molecular target: T1, Kappa-type opioid receptor; format: functional; remark: listed apart in the source
[15] = mammalian cell viability loss – Alamar Blue, dry powder, cytotoxicity control for antifungal single agent project, dose response (AID 602188); format: functional, cell-based
HEK293 [16] = assay: inhibition of NOD1-driven NF-kB reporter – cell-based, luminescence, uHTS, primary screen (AID 1578); format: functional; details: Homo sapiens
Beta-galactosidase = Beta-galactosidase (Escherichia coli, UniProt Q8VNN2); format: functional
Sequence of Beta-galactosidase (Q8VNN2 whole entry): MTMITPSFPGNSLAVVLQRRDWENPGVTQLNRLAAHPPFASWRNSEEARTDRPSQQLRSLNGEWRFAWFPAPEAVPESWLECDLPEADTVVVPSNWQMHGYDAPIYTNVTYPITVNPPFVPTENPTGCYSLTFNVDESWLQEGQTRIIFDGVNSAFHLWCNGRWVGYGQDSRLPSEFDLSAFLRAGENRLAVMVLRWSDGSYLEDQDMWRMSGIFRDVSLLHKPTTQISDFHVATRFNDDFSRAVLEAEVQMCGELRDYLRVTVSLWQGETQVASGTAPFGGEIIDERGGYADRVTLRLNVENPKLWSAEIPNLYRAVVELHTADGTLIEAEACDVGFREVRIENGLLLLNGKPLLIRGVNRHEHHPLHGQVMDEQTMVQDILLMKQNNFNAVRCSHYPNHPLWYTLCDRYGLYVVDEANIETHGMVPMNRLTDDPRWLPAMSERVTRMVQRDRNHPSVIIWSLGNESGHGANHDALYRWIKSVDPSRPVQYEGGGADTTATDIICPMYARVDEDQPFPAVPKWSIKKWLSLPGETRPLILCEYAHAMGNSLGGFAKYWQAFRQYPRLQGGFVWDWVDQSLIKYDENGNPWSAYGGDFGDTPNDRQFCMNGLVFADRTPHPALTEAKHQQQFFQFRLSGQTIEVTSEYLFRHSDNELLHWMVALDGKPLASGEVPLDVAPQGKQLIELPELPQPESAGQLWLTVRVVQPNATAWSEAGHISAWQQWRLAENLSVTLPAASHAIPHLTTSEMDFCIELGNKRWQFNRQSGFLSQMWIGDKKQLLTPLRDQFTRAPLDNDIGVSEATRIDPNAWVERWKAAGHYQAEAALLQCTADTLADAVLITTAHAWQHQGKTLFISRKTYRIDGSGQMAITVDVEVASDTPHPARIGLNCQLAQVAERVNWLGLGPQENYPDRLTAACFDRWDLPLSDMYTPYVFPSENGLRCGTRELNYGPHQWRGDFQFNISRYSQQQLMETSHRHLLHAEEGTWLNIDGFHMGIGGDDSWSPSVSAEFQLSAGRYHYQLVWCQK

HEK293 [17] = assay: cells; format: functional, cell-based; details: Homo sapiens; remark: listed apart in the source
[18] = HEK-293T viability loss after treatment – luminescence, T-cell screen hits, cytotoxicity control for TCR NF-kB inhibitor project, dose response (AID 489026); format: functional, cell-based;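 further: cells exposed to compound about 14 hours before the viability readout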
[19] = molecular target: Heat shock protein HSP 90-alpha (Homo sapiens, UniProt P07900); format: functional, organism-based
[20] = molecular target: 72 kDa type IV collagenase (Homo sapiens, UniProt P08253); assay: Dose Response validation of uHTS RPN11 inhibitor hits using a MMP-2 Fluorescence assay.; format: functional
Sequence of 72 kDa type IV collagenase (P08253 whole entry): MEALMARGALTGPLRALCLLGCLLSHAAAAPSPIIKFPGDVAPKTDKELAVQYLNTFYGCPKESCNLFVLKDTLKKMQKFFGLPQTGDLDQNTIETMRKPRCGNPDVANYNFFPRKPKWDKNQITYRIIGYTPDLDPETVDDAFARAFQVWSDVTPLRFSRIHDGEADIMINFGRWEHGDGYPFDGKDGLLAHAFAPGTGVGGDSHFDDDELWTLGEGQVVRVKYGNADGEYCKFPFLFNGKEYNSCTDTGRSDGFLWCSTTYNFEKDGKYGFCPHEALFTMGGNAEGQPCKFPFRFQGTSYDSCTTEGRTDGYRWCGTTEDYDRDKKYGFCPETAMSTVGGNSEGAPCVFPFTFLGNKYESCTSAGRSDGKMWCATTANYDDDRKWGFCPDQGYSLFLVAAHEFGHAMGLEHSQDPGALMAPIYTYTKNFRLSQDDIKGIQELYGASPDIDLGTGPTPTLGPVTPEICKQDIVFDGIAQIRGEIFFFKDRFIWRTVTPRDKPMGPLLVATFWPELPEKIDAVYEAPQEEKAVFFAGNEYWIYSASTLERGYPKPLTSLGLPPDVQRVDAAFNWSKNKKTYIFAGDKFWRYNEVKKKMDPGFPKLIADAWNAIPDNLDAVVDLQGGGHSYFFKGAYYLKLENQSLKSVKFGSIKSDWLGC

[21] = molecular target: T3, Ubiquitin-conjugating enzyme E2 N (Homo sapiens, UniProt P61088); format: functional
T3 sequence (P61088 whole entry): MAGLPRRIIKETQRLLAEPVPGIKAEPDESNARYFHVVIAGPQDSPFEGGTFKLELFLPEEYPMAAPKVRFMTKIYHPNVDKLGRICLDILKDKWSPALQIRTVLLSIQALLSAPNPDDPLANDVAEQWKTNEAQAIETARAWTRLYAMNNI

[22] = molecular target: 26S proteasome non-ATPase regulatory subunit 14 (Homo sapiens, UniProt O00487); assay: inhibition of proteasome subunit RPN11 – biochemical, fluorescence polarization, uHTS hits, confirmation (AID 602368); format: functional
Sequence of 26S proteasome non-ATPase regulatory subunit 14 (O00487 whole entry): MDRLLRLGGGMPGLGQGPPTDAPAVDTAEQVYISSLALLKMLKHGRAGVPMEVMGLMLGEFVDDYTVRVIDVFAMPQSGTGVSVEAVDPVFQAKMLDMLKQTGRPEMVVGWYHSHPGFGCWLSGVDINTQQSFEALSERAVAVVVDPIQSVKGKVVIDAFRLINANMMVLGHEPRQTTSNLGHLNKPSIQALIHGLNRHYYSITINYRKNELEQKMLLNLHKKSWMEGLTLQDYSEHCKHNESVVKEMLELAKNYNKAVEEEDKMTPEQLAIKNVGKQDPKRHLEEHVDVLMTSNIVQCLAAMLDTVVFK

[23] = luciferase reporter signal suppression in cells – H4 neuroglioma cells, luminescence, dose response (AID 1990); format: functional, cell-based
Bcl-2-related protein A1 = molecular target: T4, Bcl-2-related protein A1 (Mus musculus, UniProt Q07440); format: functional;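 further: confirmatory dose–response counterscreen on Bfl-1, used to check hits from a UBC13 polyubiquitin inhibitor campaign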
T4 sequence (Q07440 whole entry): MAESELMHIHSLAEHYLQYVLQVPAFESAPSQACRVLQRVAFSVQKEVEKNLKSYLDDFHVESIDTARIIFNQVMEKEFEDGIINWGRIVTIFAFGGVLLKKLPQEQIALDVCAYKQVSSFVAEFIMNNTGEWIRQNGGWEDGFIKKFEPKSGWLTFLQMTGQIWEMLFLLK

[24] = molecular target: T5, Apoptotic protease-activating factor 1 (Homo sapiens, UniProt O14727); format: functional
T5 sequence (O14727 whole entry): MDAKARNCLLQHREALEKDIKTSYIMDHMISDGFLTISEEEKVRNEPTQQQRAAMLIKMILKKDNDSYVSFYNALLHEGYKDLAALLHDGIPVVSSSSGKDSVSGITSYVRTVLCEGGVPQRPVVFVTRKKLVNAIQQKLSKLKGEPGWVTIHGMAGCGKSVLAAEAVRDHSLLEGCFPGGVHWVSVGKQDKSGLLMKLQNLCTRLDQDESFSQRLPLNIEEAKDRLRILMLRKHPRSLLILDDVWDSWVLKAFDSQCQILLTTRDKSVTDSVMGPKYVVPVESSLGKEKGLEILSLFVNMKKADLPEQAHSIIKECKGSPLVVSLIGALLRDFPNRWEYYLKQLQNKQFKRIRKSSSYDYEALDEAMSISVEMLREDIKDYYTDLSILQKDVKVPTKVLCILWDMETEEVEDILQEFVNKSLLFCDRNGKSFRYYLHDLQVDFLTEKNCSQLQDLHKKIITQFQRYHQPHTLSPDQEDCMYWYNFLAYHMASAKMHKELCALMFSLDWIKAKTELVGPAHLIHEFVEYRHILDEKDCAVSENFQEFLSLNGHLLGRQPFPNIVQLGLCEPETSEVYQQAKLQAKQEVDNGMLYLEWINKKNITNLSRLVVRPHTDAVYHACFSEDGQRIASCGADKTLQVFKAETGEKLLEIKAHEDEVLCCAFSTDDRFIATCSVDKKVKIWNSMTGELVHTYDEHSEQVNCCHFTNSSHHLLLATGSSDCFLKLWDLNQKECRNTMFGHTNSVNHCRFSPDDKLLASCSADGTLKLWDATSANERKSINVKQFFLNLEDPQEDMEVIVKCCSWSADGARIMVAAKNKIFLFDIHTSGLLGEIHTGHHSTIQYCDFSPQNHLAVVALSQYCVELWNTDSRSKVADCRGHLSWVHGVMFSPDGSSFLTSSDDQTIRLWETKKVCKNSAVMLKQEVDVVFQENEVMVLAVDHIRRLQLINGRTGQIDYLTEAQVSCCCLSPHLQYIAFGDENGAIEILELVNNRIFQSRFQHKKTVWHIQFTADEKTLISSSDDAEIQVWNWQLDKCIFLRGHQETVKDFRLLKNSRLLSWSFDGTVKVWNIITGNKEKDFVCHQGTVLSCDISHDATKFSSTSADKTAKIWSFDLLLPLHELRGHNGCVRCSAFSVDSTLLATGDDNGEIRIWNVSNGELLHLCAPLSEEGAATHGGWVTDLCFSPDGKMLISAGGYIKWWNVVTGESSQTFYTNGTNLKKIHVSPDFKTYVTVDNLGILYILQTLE

[25] = molecular target: T6, DNA repair protein RAD52 homolog (Homo sapiens, UniProt P43351); format: functional, biochemical
T6 sequence (P43351 whole entry): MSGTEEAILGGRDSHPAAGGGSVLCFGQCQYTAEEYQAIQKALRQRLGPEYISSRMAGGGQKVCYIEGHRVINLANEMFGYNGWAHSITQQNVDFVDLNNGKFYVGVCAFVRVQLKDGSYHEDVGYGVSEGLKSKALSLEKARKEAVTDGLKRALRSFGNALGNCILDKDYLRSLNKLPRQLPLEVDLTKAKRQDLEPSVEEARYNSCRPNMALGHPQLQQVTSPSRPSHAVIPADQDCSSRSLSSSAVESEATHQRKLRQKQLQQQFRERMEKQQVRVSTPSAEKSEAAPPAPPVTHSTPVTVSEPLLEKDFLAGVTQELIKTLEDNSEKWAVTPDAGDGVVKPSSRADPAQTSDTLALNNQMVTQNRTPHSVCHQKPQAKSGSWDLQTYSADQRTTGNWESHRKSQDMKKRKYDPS

[26] = molecular target: T3, Ubiquitin-conjugating enzyme E2 N; format: functional; remark: listed apart in the source
Prothrombin = Prothrombin (Bos taurus, UniProt P00735); assay: thrombin protease inhibitors – biochemical, fluorescence polarization, uHTS hits, dose response (AID 602369); format: functional
[27] = alpha-synuclein stem-loop luciferase translation blockers – H4 neuroglioma cells, luminescence, confirmation (AID 1988); format: functional, cell-based
[28] = molecular target: T7, Neuropeptides B/W receptor type 1 (Homo sapiens, UniProt P48145); assay: human NPBW1 receptor blockade, IC50 – cell-based, fluorescence, dose response, set 5, late-stage follow-up (AID 588566); format: functional
T7 sequence (P48145 whole entry): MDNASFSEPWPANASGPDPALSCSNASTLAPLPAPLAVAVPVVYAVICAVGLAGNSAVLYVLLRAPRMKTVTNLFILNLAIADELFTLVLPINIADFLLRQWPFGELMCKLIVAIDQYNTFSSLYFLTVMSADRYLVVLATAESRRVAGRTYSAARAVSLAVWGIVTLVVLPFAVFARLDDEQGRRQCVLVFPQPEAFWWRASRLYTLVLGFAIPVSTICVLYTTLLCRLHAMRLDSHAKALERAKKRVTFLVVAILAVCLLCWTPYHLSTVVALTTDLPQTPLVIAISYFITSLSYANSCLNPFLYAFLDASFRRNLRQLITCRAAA

[29] = molecular target: Melanin-concentrating hormone receptor 1 (Homo sapiens, UniProt Q99705); assay: Late-stage fluorescence-based counterscreen for antagonists of the G-protein coupled receptor 7 (GPR7): cell-based dose response assay to identify antagonists of the melanin-concentrating hormone receptor 1 (MCHR1) Set 5.; format: functional
Sequence of Melanin-concentrating hormone receptor 1 (Q99705 whole entry): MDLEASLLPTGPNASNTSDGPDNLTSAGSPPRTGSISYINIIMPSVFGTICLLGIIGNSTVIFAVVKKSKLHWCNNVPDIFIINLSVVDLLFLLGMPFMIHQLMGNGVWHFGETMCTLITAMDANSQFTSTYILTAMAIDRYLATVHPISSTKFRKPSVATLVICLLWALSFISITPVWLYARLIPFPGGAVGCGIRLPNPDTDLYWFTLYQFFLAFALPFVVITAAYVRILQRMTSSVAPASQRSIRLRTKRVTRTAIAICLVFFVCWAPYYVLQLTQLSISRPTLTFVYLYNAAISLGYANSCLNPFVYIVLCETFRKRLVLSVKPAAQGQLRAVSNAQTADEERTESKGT

Sequence of Benomyl/methotrexate resistance protein (P28873 whole entry): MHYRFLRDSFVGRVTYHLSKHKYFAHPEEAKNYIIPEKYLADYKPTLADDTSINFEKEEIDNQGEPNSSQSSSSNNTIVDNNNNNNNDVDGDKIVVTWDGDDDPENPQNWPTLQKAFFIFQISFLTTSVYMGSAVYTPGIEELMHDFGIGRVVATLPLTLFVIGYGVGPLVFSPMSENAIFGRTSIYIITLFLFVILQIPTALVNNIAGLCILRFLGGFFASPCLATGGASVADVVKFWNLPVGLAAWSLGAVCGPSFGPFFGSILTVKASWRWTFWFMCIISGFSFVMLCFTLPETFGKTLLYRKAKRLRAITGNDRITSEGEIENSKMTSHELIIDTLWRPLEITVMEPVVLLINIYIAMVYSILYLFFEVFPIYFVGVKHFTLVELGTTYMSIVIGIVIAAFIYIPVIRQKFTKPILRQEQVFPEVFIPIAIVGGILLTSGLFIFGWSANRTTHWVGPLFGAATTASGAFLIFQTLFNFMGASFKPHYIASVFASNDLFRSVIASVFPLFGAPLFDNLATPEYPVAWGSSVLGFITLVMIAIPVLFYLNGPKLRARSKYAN

Compound: Nc1c(Cl)cc(C2=NCCn3nc4ccccc4c32)cc1Cl
- EC50 [1]: 3.99 µM (active)

Compound: O=C(Nc1nc(-c2ccccn2)cs1)c1ccc(Cl)s1
- IC50 (HEK293 [2]): > 20 µM (inactive)
- AC50 [3]: 47.5 µM (active)
- EC50 [4]: 0.279 µM (active)
- EC50 [5]: > 20 µM (inactive)
- pIC50 [6]: < 4.49
- AC50 (INS1): 0.759 µM (active)
- EC50 [7]: 2.06 µM (inconclusive)
- AC50 [8]: 0.74 µM (active)
- EC50 [9]: 0.506 µM (active)
- IC50 (HEK293 [10]): > 20 µM (inactive)
- IC50 (HEK293 [11]): 4.18 µM (active)
- AC50 (HEK293 [12]): 0.515 µM (active)
- AC50 [13]: 0.817 µM (active)
- IC50 [14]: > 31.5 µM (inactive)
- AC50 [15]: 0.949 µM (active)
- EC50 (HEK293 [16]): 7.06 µM (active)
- EC50 (Beta-galactosidase): > 31.5 µM (inactive)
- IC50 (HEK293 [17]): 8.39 µM (active)
- IC50 [18]: 36.8 µM (inactive)

Compound: CCCCCCCCCCOC(=O)Cn1c(COc2ccc(Cl)cc2)[n+](C)c2ccccc21
- AC50 [19]: 7.94 µM (active)
- IC50 [20]: > 100 µM (inactive)
- IC50 [21]: 6.53 µM (active)
- IC50 [22]: 19.1 µM (active)
- EC50 [23]: 12.9 µM (active)
- IC50 (Bcl-2-related protein A1): 10.1 µM (active)
- IC50 [24]: 8.57 µM (active)
- AC50 [25]: 7.08 µM (active)
- IC50 [26]: 6.71 µM (active)
- IC50 (Prothrombin): 44.6 µM (active)
- EC50 [27]: > 120 µM (not active)

- IC50 [28]: > 20 µM (inactive)
- IC50 [29]: 19.6 µM (inactive)
Compound: CCOc1ccc(Oc2c(SC)cnn(Cc3cccc4ccccc34)c2=O)cc1

- IC50 [28]: 14 µM (inactive)
- IC50 [29]: ~19.9 µM (inactive)
Compound: COc1ccc(Oc2c(Cl)cnn(CC(=O)OC(C)(C)C)c2=O)cc1
